Patent US12544371B2, “Methods and compositions for treating acute lung injury and acute respiratory distress syndrome” (CalciMedica, Inc., priority 2020, dated 2026)
“Also recorded” adds a separate entry of the source. Like-named read-outs stand apart in the source and are kept apart here.

Legend:
[1] = test system: TNFα released from human PBMCs; assay: Cytokine released from human PBMCs: TNFα; format: cell-based
Excerpt: (§1) CRAC channels may play a proximal role in a calcium-calcineurin pathway leading to cytokine release in immune cells.

[2] = test system: human blood and plasma; assay: Hemolysis testing
Excerpt: Hemolysis testing concluded that Compound 1 was compatible with human plasma and non-hemolytic in human blood.

[3] = Phase 2 trial in severe COVID-19 pneumonia, interim results; format: in vivo, human; conditions: for Difference (Compound 1 − Standard Care), estimated mean of ordinal scale: MMRM; for Difference (Compound 1 − Standard Care), ordinal scale, sensitivity analysis: three patients with PaO2/FiO2<100 removed
Experimental: A phase 2 clinical trial is performed to evaluate Compound 1 in patients with severe COVID-19 pneumonia. The study will investigate the use of Compound 1 in patients with severe COVID-19 pneumonia who are at risk for progression to acute respiratory distress syndrome (ARDS).
Compound 1 Dose and Route of Administration: 2.0 mg/kg of an injectable emulsion of Compound 1 will be administered at 0 hour and 1.6 mg/kg will be administered at both 24 hours and 48 hours from the Start of the First Infusion of Study Drug (SFISD).
Study Design: In this randomized controlled open-label stage study, 60 patients who meet all of the inclusion criteria and none of the exclusion criteria will be randomized 2:1 to receive Compound 1 or continue with the local standard of care. The dose of Compound 1 will be 2.0 mg/kg of Compound 1 administered at 0 hour, and 1.6 mg/kg at 24 hours and 1.6 mg/kg at 48 hours. The SFISD should occur within 8 hours of the patient or LAR providing informed consent. The dosing will be based on actual body weight obtained at the time of hospitalization or screening for the study. A study physician or appropriately trained delegate will perform assessments at screening, immediately prior to the SFISD, and immediately prior to each subsequent infusion. At 72 hours after the SFISD, the patient will be assessed every 24 hours (±4 hours) until Day 30 after the SFISD, or until discharge if earlier. Patients who are discharged before Day 25 after the SFISD will be contacted at Day 30 (±5 days) and Day 60 (+5 days) for a safety and mortality assessment. Patients randomized to receive local standard of care will not have blood samples drawn for PK assessments.
Interim results for the phase 2 trial have been obtained, as follows. 18 patients with severe COVID-19 pneumonia have been enrolled, in which 12 treated have been treated with an injectable emulsion of Compound 1, and 6 have received the standard of care. 3 sites are currently enrolling patients. 11 of the enrolled patients are at site 1 (8 treated and 3 SOC), 3 are at site 2 (1 treated and 2 SOC), and 4 are at site 3 (3 treated and 1 SOC). The subjects with severe COVID-19 were those that necessitated low-flow oxygen treatment.
Compound 1 in Severe COVID-19 Pneumonia: Time to Hospital Discharge. One subject in standard care group was discharged with low flow treatment and is considered as censored at discharge instead of out of hospital. 3 patients who died were censored at Day 30. […] Similar improvements would be expected upon treatment with other intracellular Calcium signaling inhibitors or CRAC inhibitors.
Compound 1 in Severe COVID-19 Pneumonia: Ordinal Scale Analysis. The data in are based on an MMRM model and missing at random assumption. The ordinal scale was as follows: 1. Death 2. Hospitalized, on invasive mechanical ventilation or ECMO 3. Hospitalized, on non-invasive ventilation or high flow oxygen devices 4. Hospitalized, requiring low flow supplemental oxygen 5. Hospitalized, not requiring supplemental oxygen—requiring ongoing medical care (coronavirus (e.g. COVID-19) related or otherwise) 6. Hospitalized, not requiring supplemental oxygen—no longer requires ongoing medical care (other than per protocol study drug administration) 7. Not hospitalized. […] Similar improvements would be expected upon treatment with other intracellular Calcium signaling inhibitors or CRAC inhibitors.

[4] = test system: cytokine release from human lymphocytes; assay: In vitro studies of cytokine release from human lymphocytes; format: cell-based
[5] = test system: bacterial reverse mutation; assay: Ames bacterial reverse mutation assay; format: cell-based; conditions: in vitro
[6] = test system: IL-2 release by human PBMCs; assay: IL-2 release by human PBMCs, isolated cell assay; format: cell-based; conditions: PBMC, SEM (n), read-out: Compound 1 IC50, IL-2 release by human PBMCs
Excerpt: as §1

[7] = Mouse caerulein-induced pancreatitis model; format: in vivo; conditions: single IP dose
Excerpt: Potential efficacy of Compound 1 in treating acute lung injury was established in three diverse in vivo models of AP that cause both pancreatic damage and lung inflammation (TLCS-induced, FAEE-induced, and caerulein-induced acute pancreatitis models).

[8] = test system: human peripheral blood lymphocytes; assay: In vitro micronucleus assay; format: cell-based

Q: Which IC50 ([1]; Homo sapiens, PBMC, mean of replicates, read-out: Mean IC50, TNFα released from human PBMCs) does the source give for `Cc1cccc(F)c1C(=O)Nc1cnc(-c2cc3c(cc2Cl)OC(F)(F)O3)cn1` [Compound 1, N-(5-(6-Chloro-2,2-difluorobenzo[d][1,3]dioxol-5-yl)pyrazin-2-yl)-2-fluoro-6-methylbenzamide] here?
A: 0.225 µM

Q: What about the IC50 ([1]; Homo sapiens, PBMC, single replicates, read-out: Replicate IC50 values, TNFα released from human PBMCs) of the same molecule?
A: 0.278 µM

Q: What about the IC50 ([1]; single replicates, read-out: Replicate IC50 values, TNFα released from human PBMCs) of the same molecule?
A: 0.173 µM

Q: And the “compatibility with human plasma” value [2]?
A: compatible

Q: And the “hemolysis in human blood” value [2]?
A: non-hemolytic

Q: And the “Difference (Compound 1 − Standard Care), estimated mean of ordinal scale” value (shortened to “Difference … of ordinal scale”) ([3]; Study Day 0)?
A: 0.00

Q: What about the “Difference (Compound 1 − Standard Care), ordinal scale, sensitivity analysis” value (“Difference … sensitivity analysis” for short) ([3]; Study Day 0) of the same molecule?
A: 0.00

Q: What about the “Difference … of ordinal scale” value ([3]; Study Day 1) of the same molecule?
A: 0.75

Q: What about the “Difference … sensitivity analysis” value ([3]; Study Day 1) of the same molecule?
A: 0.70

Q: What about the “Difference … of ordinal scale” value ([3]; Study Day 2) of the same molecule?
A: 0.83

Q: And the “Difference … sensitivity analysis” value ([3]; Study Day 2)?
A: 0.80

Q: What about the “Difference … of ordinal scale” value ([3]; Study Day 3) of the same molecule?
A: 1.17

Q: And the “Difference … sensitivity analysis” value ([3]; Study Day 3)?
A: 1.10

Q: And the “Difference … of ordinal scale” value ([3]; Study Day 4)?
A: 1.73

Q: What about the “Difference … sensitivity analysis” value ([3]; Study Day 4) of the same molecule?
A: 1.76

Q: What about the “Difference … of ordinal scale” value ([3]; Study Day 5) of the same molecule?
A: 1.87

Q: What about the “Difference … sensitivity analysis” value ([3]; Study Day 5) of the same molecule?
A: 2.02

Q: And the “Difference … of ordinal scale” value ([3]; Study Day 6)?
A: 2.04

Q: And the “Difference … sensitivity analysis” value ([3]; Study Day 6)?
A: 2.23

Q: What about the “Difference … of ordinal scale” value ([3]; Study Day 7) of the same molecule?
A: 1.30

Q: What about the “Difference … sensitivity analysis” value ([3]; Study Day 7) of the same molecule?
A: 1.79

Q: And the “Difference … of ordinal scale” value ([3]; Study Day 8)?
A: 1.39

Q: And the “Difference … sensitivity analysis” value ([3]; Study Day 8)?
A: 1.89

Q: And the “Difference … of ordinal scale” value ([3]; Study Day 9)?
A: 1.48

Q: And the “Difference … sensitivity analysis” value ([3]; Study Day 9)?
A: 1.90

Q: What about the “Difference … of ordinal scale” value ([3]; Study Day 10) of the same molecule?
A: 1.21

Q: And the “Difference … sensitivity analysis” value ([3]; Study Day 10)?
A: 1.81

Q: What about the “Difference … of ordinal scale” value ([3]; Study Day 12) of the same molecule?
A: 1.31

Q: And the “Difference … sensitivity analysis” value ([3]; Study Day 12)?
A: 1.81

Q: What about the “Difference … of ordinal scale” value ([3]; Study Day 14) of the same molecule?
A: 1.05

Q: And the “Difference … sensitivity analysis” value ([3]; Study Day 14)?
A: 2.07

Q: And the “Difference … sensitivity analysis” value ([3]; Study Day 16)?
A: 1.82

Q: And the “Difference … sensitivity analysis” value ([3]; Study Day 18)?
A: 1.83

Q: And the “ordinal scale (7-point)” value ([3]; interim)?
A: improvement

Q: What about the “Subjects out of hospital” value ([3]; interim, 9/12 subjects) of the same molecule?
A: 9/12 (75%)

Q: And the PaO2/FiO2 ([3]; interim, following administration)?
A: increased

Q: What about the “probability of being at a hospital over time” value ([3]; interim, versus standard care) of the same molecule?
A: lower probability of being at a hospital over time

Q: What about the “KM estimate of number of days in hospital, median” value ([3]; interim, 95% CI (4 days, na)) of the same molecule?
A: 5.5 days (4 days, na)

Q: What about the “inhibition of cytokine release from human lymphocytes” value [4] of the same molecule?
A: inhibits release of multiple cytokines; also recorded: potent, concentration-dependent inhibition

Q: And the “Ames bacterial reverse mutation assay result” value [5]?
A: negative

Q: And the IC50 [6]?
A: 0.01 ± 0.0004 µM

Q: And the “lung myeloperoxidase; pancreas trypsin activity, myeloperoxidase activity and histopathological indices” value [7]?
A: markedly reduced

Q: What about the micronucleus assay result [8] of the same molecule?
A: weakly positive/equivocal
